# According to US20200246364A1, “MEDICAL APPLICATION OF COMPOSITION OF FRUCTOSE-1,6-BISPHOSPHATE AND BLOOD CONCENTRATION STABILIZER THEREOF” (ZHEJIANG UNIVERSITY, priority 2017, published 2020):
# Marks after values point to notes of the source that are not given here.
# Key:
# C6 [1] = test: Intracellular glycolytic intermediates (LC-MS/MS) and FBP in culture medium; type: cell-based, rat; conditions: C6, 1.6 mM, 36 h
# Procedure: (§1) Rat glioma cell strains (C6), human glioma cell strains (U87-MG, U-251, SHG-44) and patient-derived glioma cells (tumor 1, tumor 3) were incubated in a culture medium containing 1.6 mM of trisodium fructose-1,6-bisphosphate, and after 36 h, levels of glycolytic intermediates including glucose-6-phosphate G6P, fructose-1,6-bisphosphate FBP, glyceraldehyde 3-phosphate (GAP), dihydroxyacetone phosphate (DHAP), and […] 3-phosphoglyceric acid PGA in respective cells were measured by using LC-MS/MS; and additionally, the levels of fructose-1,6-bisphosphate in each glioma cell strain at 12 h and 36 h were measured.
# SHG-44 [2] = test: as above; type: cell-based, human; conditions: SHG-44, 1.6 mM, 36 h
# Procedure: as §1
# U87-MG = test: as above; type: cell-based, human; conditions: 1.6 mM, 36 h
# Procedure: as §1
# [3] = test system: patient-derived glioma cells Tumor 1; test: as above; type: cell-based, human; conditions: Tumor 1, 1.6 mM, 36 h
# Procedure: as §1
# [4] = test system: patient-derived glioma cells Tumor 3; test: as above; type: cell-based, human; conditions: Tumor 3, 1.6 mM, 36 h
# Procedure: as §1
# glioma cells U87-MG = test: Lactic acid released by glioma cells (glycolysis); type: cell-based, human
# Procedure: (§2) Human glioma cell strains (U87-MG, KNS-89, SHG-44) were respectively incubated in culture media containing 0.8 mM of trisodium fructose-1,6-bisphosphate salt, and 1.6 mM of trisodium fructose-1,6-bisphosphate salt, and 1.6 mM of 2-deoxyglucose, and the contents of lactic acid as the final glycolytic product released by the cells in the culture media were measured after 12 h, 24 h, 36 h, and 48 h. […] Human glioma cell strain (U87-MG) was incubated in the culture medium containing 0.8 mM of trisodium fructose-1,6-bisphosphate salt for 1 h, 3 h, 6 h, 12 h, 24 h, 36 h, and 48 h, and level changes of key metabolic enzymes in the glycolytic pathway of cells were measured by Western Blot at the respective time points.
# glioma cells SHG-44 = test: Lactic acid released by glioma cells (glycolysis); type: cell-based, human
# Procedure: as §2
# C6 [5] = test: Mitochondrial oxidative phosphorylation in glioma cells (ATP/ADP, NADH/NAD+, ATP); type: cell-based, rat
# SHG-44 [6] = test: as above; type: cell-based, human
# U87MG [7] = test: 13C-glucose tracing: glycolysis, pentose phosphate, one-carbon and nucleic acid synthesis intermediates (LC-MS/MS); type: cell-based, human; conditions: 1.6 mM, 36 h
# Procedure: Human glioma cell strain (U87MG) was incubated in a medium containing ^13C-labeled glucose (U-^13C-Glc) and treated with 1.6 mM of trisodium fructose-1,6-bisphosphate for 36 h, and then, intermediate products of intracellular glycolysis pathway, pentose phosphate pathway, “one-carbon unit” metabolic pathway, and nucleic acid de novo synthesis pathway were measured using liquid-mass spectrometry (LC-MS/MS).
# U87MG [8] = test: Tricarboxylic acid circulation intermediates in cytoplasm and mitochondria (LC-MS/MS); type: cell-based, human; conditions: 1.6 mM, 36 h
# Procedure: Human glioma cell strain (U87MG) was cultured in a medium containing 1.6 mM of trisodium fructose-1,6-bisphosphate for 36 h, and then cytoplasm and mitochondria were separated. Levels of tricarboxylic acid circulation intermediates in cytoplasm and mitochondria were respectively measured by LC-MS/MS.
# U251 = test: Reactive oxygen species and mitochondrial membrane potential; type: cell-based, human; conditions: U251, 0.8 mM
# SW620 = test: cells; conditions: Homo sapiens, SW-620, 72 h
# Procedure: Human intestinal cancer cell strains SW620 and HCT-8, which had been incubated for 24 hours, were respectively incubated in a medium containing 0.8 mM of trisodium fructose-1,6-bisphosphate, a medium containing 0.2 mM of metformin/100 μM of sitagliptin, and a medium containing 0.8 mM of trisodium fructose-1,6-bisphosphate and 0.2 mM of metformin/100 μM of sitagliptin for 72 h. A control group (Con) was not treated with the agent. Cell viability was determined by Sulforhodamine B (SRB) staining analysis method.
# Bel-7402 = test: cells; conditions: Homo sapiens, Bel-7402, 72 h, read-out: cell viability inhibited
# Procedure: Human liver cancer cell strains Bel-7402 and huh-7, which had been incubated for 24 hours, were respectively incubated in a medium containing 1.6 mM or 0.8 mM of trisodium fructose-1,6-bisphosphate, a medium containing 0.2 mM of metformin or 25 μM of sitagliptin, and a medium containing 0.8 mM of trisodium fructose-1,6-bisphosphate and 0.2 mM of metformin/25 μM of sitagliptin for 72 h. A control group (Con) was not treated with the agent. Cell viability was determined by Sulforhodamine B (SRB) staining analysis method.
# melanoma B16 cell = test: Cell viability, Sulforhodamine B (SRB) staining; conditions: Mus musculus, B16, 72 h
# Procedure: Mouse melanoma B16 cells, which had been incubated for 24 hours, were incubated in a medium containing 0.8 mM of trisodium fructose-1,6-bisphosphate, a medium containing 20 μM of sitagliptin, and a medium containing 0.8 mM of trisodium fructose-1,6-bisphosphate and 20 μM of sitagliptin for 72 h. A control group (Con) was not treated with the agent. Cell viability was determined by Sulforhodamine B (SRB) staining analysis method.
# [9] = read-out: cell viability (Con = 100)
# [10] = read-out: cell viability inhibited
compound,measurement,setting,value
"O=C(COP(=O)(O)O)[C@@H](O)[C@H](O)[C@H](O)COP(=O)(O)O [FBP, fructose-1,6-bisphosphate]",Increase folds of intracellular DHAP (compared with the control group),C6 [1],66.04 folds
same,Increase folds of intracellular F6P (compared with the control group),C6 [1],19.89 folds
same,Increase folds of intracellular FBP (compared with the control group),C6 [1],92.22 folds
same,Increase folds of intracellular GAP (compared with the control group),C6 [1],132.85 folds
same,Increase folds of intracellular PGA (compared with the control group),C6 [1],2.2 folds
same,Increase folds of intracellular DHAP (compared with the control group),SHG-44 [2],12.48 folds
same,Increase folds of intracellular F6P (compared with the control group),SHG-44 [2],3.12 folds
same,Increase folds of intracellular FBP (compared with the control group),SHG-44 [2],10.74 folds
same,Increase folds of intracellular GAP (compared with the control group),SHG-44 [2],21.03 folds
same,Increase folds of intracellular PGA (compared with the control group),SHG-44 [2],2.04 folds
same,Increase folds of intracellular DHAP (compared with the control group),U87-MG,944.4 folds
same,Increase folds of intracellular F6P (compared with the control group),U87-MG,47.31 folds
same,Increase folds of intracellular FBP (compared with the control group),U87-MG,149.69 folds
same,Increase folds of intracellular GAP (compared with the control group),U87-MG,1222.86 folds
same,Increase folds of intracellular PGA (compared with the control group),U87-MG,3.03 folds
same,Increase folds of intracellular DHAP (compared with the control group),[3],4.9 folds
same,Increase folds of intracellular F6P (compared with the control group),[3],2.02 folds
same,Increase folds of intracellular FBP (compared with the control group),[3],8.27 folds
same,Increase folds of intracellular GAP (compared with the control group),[3],7.22 folds
same,Increase folds of intracellular PGA (compared with the control group),[3],1.13 folds
same,Increase folds of intracellular DHAP (compared with the control group),[4],55.58 folds
same,Increase folds of intracellular F6P (compared with the control group),[4],14.12 folds
same,Increase folds of intracellular FBP (compared with the control group),[4],22.94 folds
same,Increase folds of intracellular GAP (compared with the control group),[4],76.22 folds
same,Increase folds of intracellular PGA (compared with the control group),[4],1.86 folds
same,Relative levels of lactic acid (compared with the control group),"glioma cells U87-MG; 0.8 mM, 12 h",0.96 ± 0.13
same,Relative levels of lactic acid (compared with the control group),"glioma cells U87-MG; 0.8 mM, 24 h",0.73 ± 0.05
same,Relative levels of lactic acid (compared with the control group),"glioma cells U87-MG; 0.8 mM, 36 h",0.56 ± 0.18
same,Relative levels of lactic acid (compared with the control group),"glioma cells U87-MG; 1.6 mM, 12 h",1.09 ± 0.11
same,Relative levels of lactic acid (compared with the control group),"glioma cells U87-MG; 1.6 mM, 24 h",0.71 ± 0.05
same,Relative levels of lactic acid (compared with the control group),"glioma cells U87-MG; 1.6 mM, 36 h",0.39 ± 0.03
same,Relative levels of lactic acid (compared with the control group),"glioma cells SHG-44; SHG-44, 0.8 mM, 12 h",1.06 ± 0.05
same,Relative levels of lactic acid (compared with the control group),"glioma cells SHG-44; SHG-44, 0.8 mM, 24 h",0.87 ± 0.01
same,Relative levels of lactic acid (compared with the control group),"glioma cells SHG-44; SHG-44, 0.8 mM, 36 h",0.83 ± 0.05
same,Relative levels of lactic acid (compared with the control group),"glioma cells SHG-44; SHG-44, 1.6 mM, 12 h",0.89 ± 0.09
same,Relative levels of lactic acid (compared with the control group),"glioma cells SHG-44; SHG-44, 1.6 mM, 24 h",0.75 ± 0.07
same,Relative levels of lactic acid (compared with the control group),"glioma cells SHG-44; SHG-44, 1.6 mM, 36 h",0.58 ± 0.06
same,ratio of ATP/ADP (CON = 1.00),"C6 [5]; C6, 0.8 mM or 1.6 mM, 36 h",10.89 ± 1.37
same,ratio of NADH/NAD+ (CON = 1.00),"C6 [5]; C6, 0.8 mM or 1.6 mM, 36 h",7.76 ± 0.59
same,ATP level,"C6 [5]; C6, 36 h, vs control group",significantly increased
same,ratio of ATP/ADP (CON = 1.00),"SHG-44 [6]; SHG-44, 0.8 mM or 1.6 mM, 36 h",3.82 ± 0.68
same,ratio of NADH/NAD+ (CON = 1.00),"SHG-44 [6]; SHG-44, 0.8 mM or 1.6 mM, 36 h",3.40 ± 0.15
same,ATP level,"SHG-44 [6]; SHG-44, 36 h, vs control group",significantly increased
same,"glycine (Gly) (M+2) produced by serine, relative to control group 1",U87MG [7],0.63±0.06
same,"serine (Ser) (M+3) produced by U-13C-Glc, relative to control group 1",U87MG [7],1.57±0.04
same,"Proportions of 13C-labeled ribose in free nucleosides and nucleotides, column F6P",U87MG [7]; CON 13.03 ± 0.38,2.79 ± 0.14
same,"Proportions of 13C-labeled ribose in free nucleosides and nucleotides, column GAP",U87MG [7]; CON 31.97 ± 1.11,11.31 ± 1.75
same,"Proportions of 13C-labeled ribose in free nucleosides and nucleotides, column FBP",U87MG [7]; CON 41.00 ± 4.28,34.99 ± 1.63
same,"Proportions of 13C-labeled ribose in free nucleosides and nucleotides, column PEP",U87MG [7]; CON 59.40 ± 1.11,13.71 ± 0.54
same,"Proportions of 13C-labeled ribose in free nucleosides and nucleotides, column Lac",U87MG [7]; CON 61.60 ± 1.95,30.70 ± 2.11
same,proportion of the 13C-labeled 5-phosphate ribose (R5P),U87MG [7]; control group 68.96±5.03%,17.32±1.23%
same,Relative level of F6P (compared with the control group),U87MG [7]; U-13C-Glc,2.06 ± 0.04
same,Relative level of FBP (compared with the control group),U87MG [7]; U-13C-Glc,5.01 ± 0.34
same,Relative level of GAP (compared with the control group),U87MG [7]; U-13C-Glc,4.27 ± 0.07
same,Relative level of Lac (compared with the control group),U87MG [7]; U-13C-Glc,1.06 ± 0.02 ^N.S.
same,Relative level of PEP (compared with the control group),U87MG [7]; U-13C-Glc,8.00 ± 0.32
same,Relative level of Ac-CoA (compared with the control group),U87MG [8]; cytoplasm,0.02 ± 0.01
same,Relative level of Cit (compared with the control group),U87MG [8]; cytoplasm,0.28 ± 0.01
same,Relative level of OAA (compared with the control group),U87MG [8]; cytoplasm,0.19 ± 0.01
same,Relative level of α-KG (compared with the control group),U87MG [8]; cytoplasm,1.20 ± 0.12*^
same,Relative level of Ac-CoA (compared with the control group),U87MG [8]; mitochondria,1.38 ± 0.11
same,Relative level of Cit (compared with the control group),U87MG [8]; mitochondria,1.02 ± 0.06
same,Relative level of OAA (compared with the control group),U87MG [8]; mitochondria,2.02 ± 0.13
same,Relative level of α-KG (compared with the control group),U87MG [8]; mitochondria,2.42 ± 0.04
same,Relative level of mitochondrial membrane potential (compared with the control group),U251; 12 h,1.08 ± 0.03
same,Relative level of reactive oxygen species (compared with the control group),U251; 12 h,1.20 ± 0.04
same,Relative level of mitochondrial membrane potential (compared with the control group),U251; 24 h,1.18 ± 0.01
same,Relative level of reactive oxygen species (compared with the control group),U251; 24 h,1.19 ± 0.03
same,Relative level of mitochondrial membrane potential (compared with the control group),U251; 48 h,0.6 ± 0.06
same,Relative level of reactive oxygen species (compared with the control group),U251; 48 h,1.42 ± 0.03
same,Relative level of mitochondrial membrane potential (compared with the control group),U251; 72 h,0.4 ± 0.07
same,Relative level of reactive oxygen species (compared with the control group),U251; 72 h,1.82 ± 0.03
same,viability at 800 µM,SW620; [9],49.9 ± 3.91%
same,cytotoxicity at 800 µM,SW620; [10],41%
same,cytotoxicity at 800 µM,Bel-7402,41%
same,viability at 800 µM,melanoma B16 cell; [9],77.7 ± 7.29%
same,cytotoxicity at 800 µM,melanoma B16 cell; [10],22%
